Like-named read-outs stand apart in the source and are kept apart here. Marks after values point to notes of the source that are not given here.
Columns and labels:
[1] = tested on: hiPSC-derived neurons co-cultured with human primary astrocytes in 2D; assay: Ca2+ transient oscillation assay (FDSS), 2D co-culture; assay type: cell-based; conditions: for activation at 0.11 µM / activation at 0.33 µM / activation at 1 µM / activation at 3 µM / activation at 1.11 µM / activation at 3.33 µM / activation at 10 µM / activation at 30 µM: Homo sapiens, 1 h, 60 min
Excerpt: (§1) In this study, we used cryopreserved excitatory neurons that were differentiated from human induced pluripotent stem cells (hiPSCs; Cat #: EX-SeV-CW50065) (Elixirgen Scientific, Inc., Baltimore, MD, USA). The hiPSCs used, namely, CW50065 were derived from a healthy person and distributed by the California Institute of Regenerative Medicine Human Induced Pluripotent Stem Cell Repository. Human iPSC-derived excitatory neurons were differentiated from CW50065 using a proprietary cocktail of differentiation-inducing factors called Quick-Neuron™ EX-SeV (Batch number: EX-SeV-CW50065-L; Elixirgen Scientific, Inc.), cryopreserved 3 days after differentiation induction and distributed. Human iPSC-derived excitatory neurons were recovered from cryopreservation and maintained essentially as instructed by the manufacturer.
(§2) Cryopreserved human primary astrocytes (#N7805100, Thermo Fisher Scientific, Waltham, MA, USA) were recovered as instructed by the manufacturer and seeded in a 10 cm dish at the density of 2,000,000 cells. The culture was maintained using the Human Astrocytes Kit (#N7805200, Thermo Fisher Scientific) for 12 days. Half of the culture medium was replaced with fresh medium every 2–3 days during the culture period. These astrocytes were harvested using StemPro™ Accutase™ Cell Dissociation Reagent (#A1110501, Thermo Fisher Scientific) when they reached confluency. These cells were cryopreserved in STEM-CELLBANKER® GMP grade (ZENOGEN PHARMA, Kohriyama, Fukushima Japan) at the density of 2,000,000 cells per vial as working stocks for co-culture with neurons in 2D and 3D conditions described below. After a working stock was recovered, astrocytes were directly mixed with hiPSC-derived neurons for plating without further expansion.
Live neurons (hiPSC neurons) and human primary astrocytes were recovered from cryopreservation as described above and seeded in each well of 384-well plates at the density of 10,000 cells (HiPSC-cortical neurons) and human primary astrocytes at 2500 cells (ratio 4:1). These co-cultures were maintained under the medium conditions recommended by the manufacturer, namely Medium N(G2P), to complete the differentiation of excitatory neurons for the first week. […] Half of the culture medium was replaced with fresh medium every 3–4 days during the culture period.
After the incubation, the culture medium containing Cal-520 was replaced with 50 μL of HBSS supplemented with 0.1 mM MgCl2, 2 mM CaCl2, 10 mM HEPES, and 10 mM glucose and incubated at 37 ℃ for 15 min.
(§3) Prior to the fluorescence measurements, all wells to be measured were treated with 0.04% dimethyl sulfoxide (DMSO) to stabilize the oscillation signal. The first recording started 10 min after the addition of DMSO for each plate for 20 min. The effects of the test compound were recorded again starting 60 min after the administration of compounds, for 20 min.
Twenty-five compounds (Table 1) were first dissolved in either DMSO (most compounds) or distilled water depending on the compound, and further diluted with PBS to produce stock solutions concentrated 10-fold. […] The final concentration of DMSO was adjusted to 0.1%. Changes in the fluorescence intensity (FI) produced by Ca^2+ flux were measured at 37 °C for all wells of a 384-well plate simultaneously using the FDSS/µCell system (#C13299, Hamamatsu Photonics, Hamamatsu, Shizuoka, Japan). The excitation and the emission wavelengths were 470 nm and 540 nm, respectively. The recording duration was 20 min with a sampling frequency of 2 Hz for cells cultured under 2D conditions and 10 Hz for cells cultured under 3D conditions.

[2] = tested on: hiPSC-derived neurons co-cultured with human primary astrocytes in 3D; assay: Ca2+ transient oscillation assay (FDSS), 3D spheroids; assay type: cell-based; conditions: 60 min
Excerpt: as §1, §2
We used U-shaped-bottom 96-well plates (#174925, Thermo Fisher Scientific) without any prior coating to make a spheroid in each well. Neurons and astrocytes were seeded and maintained as described for 2D cultures, except for the following modifications. First, neurons and astrocytes were seeded in each well of the 96-well plates at the density of 8000 hiPSC neurons with 8000 human primary astrocytes (8000)/well (ratio 1:1). Second, when the differentiation of excitatory neurons was completed one week after seeding, cells were fed with BrainPhys^TM Neuronal Medium (#05793, […] Technologies, Vancouver, BC, Canada) supplemented with 2% SM1 Neuronal Supplement, 1% N2 Supplement-A, and 10% Neuron culture medium for 5 weeks.
Cells maintained as spheroids (3D) in the U-shaped-bottom 96-well plates were transferred into 384-well spheroid plates (#4516, Merck, Corning, NY, USA) with 25 µL of the culture medium. A Ca^2+-indicating dye solution including […] was prepared using the EarlyTox™ Cardiotoxicity Kit (#R8211, Molecular Devices, LLC, San Jose, CA, USA) according to the manufacturer. Then, the same volume of the dye solution was dispensed into each well.
as §3
Twenty-five compounds (Table 1) were first dissolved in either DMSO (most compounds) or distilled water depending on the compound, and further diluted with PBS to produce stock solutions concentrated 10-fold. Then, 5 μL of each compound solution was injected into each well using an automatic pipetting robot (#4505, ASSIST PLUS pipetting robot, Integra Biosciences Corp., Hudson, NH, USA), so that the final concentration of each compound was 1-fold nominal in the well.

[3] = read-out: Area under the curve - 2D Mean
[4] = read-out: Peak amplitude - 2D Mean
[5] = read-out: Peak-to-peak interval - 2D Mean

SMILES: C[C@]12N[C@H](Cc3ccccc31)c1ccccc12 [MK-801, Dizocilpine]
- activation at 0.11 µM [1, 3]: -35.7%
- activation at 0.11 µM ([1]; read-out: Peak Number—2D Mean): -82.8%
- activation at 0.11 µM [1, 4]: -41.8%
- activation at 0.11 µM ([1]; read-out: Peak width - 2D Mean): -3.2%
- activation at 0.11 µM [1, 5]: 204%
- activation at 0.33 µM [1, 3]: -57%
- activation at 0.33 µM ([1]; read-out: Peak Number—2D Mean): -90.4%
- activation at 0.33 µM [1, 4]: -63.6%
- activation at 0.33 µM ([1]; read-out: Peak width - 2D Mean): -23.6%
- activation at 0.33 µM [1, 5]: 3.6%
- activation at 1 µM [1, 3]: -57.4%
- activation at 1 µM ([1]; read-out: Peak Number—2D Mean): -84.6%
- activation at 1 µM [1, 4]: -58.6%
- activation at 1 µM ([1]; read-out: Peak width - 2D Mean): -32.8%
- activation at 1 µM [1, 5]: -57.4%
- activation at 3 µM [1, 3]: -79.8%
- activation at 3 µM ([1]; read-out: Peak Number—2D Mean): -96.3%
- activation at 3 µM [1, 4]: -79.7%
- activation at 3 µM ([1]; read-out: Peak width - 2D Mean): -70%
- activation at 3 µM [1, 5]: -100%
- Area under the curve - 3D Mean ([2]; 0.11 µM): 127.3 % change from baseline
- Peak Number—3D Mean ([2]; 0.11 µM): −49.1 * % change from baseline
- Peak amplitude - 3D Mean ([2]; 0.11 µM): 104.7 % change from baseline
- Peak width - 3D Mean ([2]; 0.11 µM): 8.0 % change from baseline
- Peak-to-peak interval - 3D Mean ([2]; 0.11 µM): 76.1 % change from baseline
- Area under the curve - 3D Mean ([2]; 0.33 µM): 66.6 % change from baseline
- Peak Number—3D Mean ([2]; 0.33 µM): −67.3 ** % change from baseline
- Peak amplitude - 3D Mean ([2]; 0.33 µM): 76.2 % change from baseline
- Peak width - 3D Mean ([2]; 0.33 µM): −29.3 % change from baseline
- Peak-to-peak interval - 3D Mean ([2]; 0.33 µM): 66.4 % change from baseline
- Area under the curve - 3D Mean ([2]; 1 µM): -66.9 % change from baseline
- Peak Number—3D Mean ([2]; 1 µM): −97.2 ** % change from baseline
- Peak amplitude - 3D Mean ([2]; 1 µM): −64.1 % change from baseline
- Peak width - 3D Mean ([2]; 1 µM): −85.8 % change from baseline
- Peak-to-peak interval - 3D Mean ([2]; 1 µM): −100.0 % change from baseline
- Area under the curve - 3D Mean ([2]; 3 µM): 41.0 % change from baseline
- Peak Number—3D Mean ([2]; 3 µM): −84.8 ** % change from baseline
- Peak amplitude - 3D Mean ([2]; 3 µM): 67.2 % change from baseline
- Peak width - 3D Mean ([2]; 3 µM): −36.8 % change from baseline
- Peak-to-peak interval - 3D Mean ([2]; 3 µM): −100.0 % change from baseline

SMILES: OC(c1cc(C(F)(F)F)nc2c(C(F)(F)F)cccc12)C1CCCCN1 (stereo not drawn) [Mefloquine]
- effect on peak number / Ca2+ neuronal oscillations, in words ([1]; 2D format): significantly reduced peak number
- activation at 1.11 µM [1, 3]: 14.8%
- activation at 1.11 µM ([1]; read-out: Peak Number—2D Mean): -30.8%
- activation at 1.11 µM [1, 4]: 0.5%
- activation at 1.11 µM ([1]; read-out: Peak width - 2D Mean): 15.8%
- activation at 1.11 µM [1, 5]: 25%
- activation at 3.33 µM [1, 3]: -47.2%
- activation at 3.33 µM ([1]; read-out: Peak Number—2D Mean): 16.2%
- activation at 3.33 µM [1, 4]: -21.2%
- activation at 3.33 µM ([1]; read-out: Peak width - 2D Mean): -47%
- activation at 3.33 µM [1, 5]: 48.2%
- activation at 10 µM [1, 3]: -100%
- activation at 10 µM ([1]; read-out: Peak Number—2D Mean): -100%
- activation at 10 µM [1, 4]: -100%
- activation at 10 µM ([1]; read-out: Peak width - 2D Mean): -100%
- activation at 10 µM [1, 5]: -100%
- activation at 30 µM [1, 3]: -100%
- activation at 30 µM ([1]; read-out: Peak Number—2D Mean): -100%
- activation at 30 µM [1, 4]: -100%
- activation at 30 µM ([1]; read-out: Peak width - 2D Mean): -100%
- activation at 30 µM [1, 5]: -100%
- Area under the curve - 3D Mean ([2]; 1.11 µM): 159.0 % change from baseline
- Peak Number—3D Mean ([2]; 1.11 µM): 2.8 % change from baseline
- Peak amplitude - 3D Mean ([2]; 1.11 µM): 149.7 % change from baseline
- Peak width - 3D Mean ([2]; 1.11 µM): 2.6 % change from baseline
- Peak-to-peak interval - 3D Mean ([2]; 1.11 µM): 7.1 % change from baseline
- Area under the curve - 3D Mean ([2]; 3.33 µM): 143.4 % change from baseline
- Peak Number—3D Mean ([2]; 3.33 µM): −11.1 % change from baseline
- Peak amplitude - 3D Mean ([2]; 3.33 µM): 139.0 % change from baseline
- Peak width - 3D Mean ([2]; 3.33 µM): 1.4 % change from baseline
- Peak-to-peak interval - 3D Mean ([2]; 3.33 µM): 1.7 % change from baseline
- Area under the curve - 3D Mean ([2]; 10 µM): 135.6 % change from baseline
- Peak Number—3D Mean ([2]; 10 µM): 7.2 % change from baseline
- Peak amplitude - 3D Mean ([2]; 10 µM): 135.0 % change from baseline
- Peak width - 3D Mean ([2]; 10 µM): −1.5 % change from baseline
- Peak-to-peak interval - 3D Mean ([2]; 10 µM): 12.8 % change from baseline
- Area under the curve - 3D Mean ([2]; 30 µM): 74.4 % change from baseline
- Peak Number—3D Mean ([2]; 30 µM): −3.7 % change from baseline
- Peak amplitude - 3D Mean ([2]; 30 µM): 99.9 % change from baseline
- Peak width - 3D Mean ([2]; 30 µM): −10.9 % change from baseline
- Peak-to-peak interval - 3D Mean ([2]; 30 µM): 8.3 % change from baseline
